# Article PMC6253949, “The Inhibitory Action of Kohamaic Acid A Derivatives on Mammalian DNA Polymerase β” (Molecules, 2008)
# Legend:
# [1] = molecular target: T1, T7 RNA polymerase (Escherichia phage T7, UniProt P00573); assay: T7 RNA polymerase assay; type: biochemical
# T1 construct: purchased Takara (Kyoto, Japan)
# Source text: (§1) Pol α was purified from calf thymus by immuno-affinity column chromatography as described by Tamai et al.. Recombinant rat pol β was purified from E. coli JMpβ5 as described by Date et al.. The human pol γ catalytic gene was cloned into pFastBac. Histidine-tagged enzyme was expressed using the BAC-TO-BAC HT Baculovirus Expression System according to the supplier's manual (LIFE TECHNOLOGIES, MD, USA) and purified using ProBoundresin (Invitrogen Japan, Tokyo, Japan). Human pols δ and ε were purified by the nuclear fractionation of human peripheral blood cancer cells (Molt-4) using the second subunit of pols δ and ε-conjugated affinity column chromatography, respectively. Recombinant human pols η and ι tagged with His6 at their C-terminal were expressed in SF9 insect cells using the baculovirus expression system, and were purified as described previously. A truncated form of pol κ (i.e., hDINB1DC) with 6 x His-tags attached at the C-terminal was overproduced using the BAC-to-BAC Baculovirus Expression System kit (GIBCO BRL, MD, USA) and purified as described previously. […]
# The primase activity of calf pol α, the activities of T7 RNA polymerase, T4 polynucleotide kinase and bovine DNase I were measured in standard assays according to the manufacturer's specifications as described by Tamiya-Koizumi et al., Nakayama et al., Soltis et al., and Lu and Sakaguchi, respectively.
# [2] = molecular target: mammalian pols; assay: DNA polymerase assays, all mammalian pols tested; type: biochemical; conditions: all mammalian pols tested (α, β, γ, δ, ε, η, ι, κ, λ); read-out: range of IC50 values for mammalian pols
# Source text: as §1
# (§2) For pols, poly(dA)/oligo(dT)12-18 (A/T = 2/1) and dTTP were used as the DNA template-primer and nucleotide (i.e., dNTP) substrate, respectively. […] Activity without the inhibitor was considered 100%, and the remaining activity at each concentration of the inhibitor was determined relative to this value. […]
# [3] = molecular target: T2, T4 DNA polymerase (Enterobacteria phage T4, UniProt P04415); assay: DNA polymerase assay, T4 pol; type: biochemical
# T2 construct: purchased Takara (Kyoto, Japan)
# T2 sequence (P04415 1-898): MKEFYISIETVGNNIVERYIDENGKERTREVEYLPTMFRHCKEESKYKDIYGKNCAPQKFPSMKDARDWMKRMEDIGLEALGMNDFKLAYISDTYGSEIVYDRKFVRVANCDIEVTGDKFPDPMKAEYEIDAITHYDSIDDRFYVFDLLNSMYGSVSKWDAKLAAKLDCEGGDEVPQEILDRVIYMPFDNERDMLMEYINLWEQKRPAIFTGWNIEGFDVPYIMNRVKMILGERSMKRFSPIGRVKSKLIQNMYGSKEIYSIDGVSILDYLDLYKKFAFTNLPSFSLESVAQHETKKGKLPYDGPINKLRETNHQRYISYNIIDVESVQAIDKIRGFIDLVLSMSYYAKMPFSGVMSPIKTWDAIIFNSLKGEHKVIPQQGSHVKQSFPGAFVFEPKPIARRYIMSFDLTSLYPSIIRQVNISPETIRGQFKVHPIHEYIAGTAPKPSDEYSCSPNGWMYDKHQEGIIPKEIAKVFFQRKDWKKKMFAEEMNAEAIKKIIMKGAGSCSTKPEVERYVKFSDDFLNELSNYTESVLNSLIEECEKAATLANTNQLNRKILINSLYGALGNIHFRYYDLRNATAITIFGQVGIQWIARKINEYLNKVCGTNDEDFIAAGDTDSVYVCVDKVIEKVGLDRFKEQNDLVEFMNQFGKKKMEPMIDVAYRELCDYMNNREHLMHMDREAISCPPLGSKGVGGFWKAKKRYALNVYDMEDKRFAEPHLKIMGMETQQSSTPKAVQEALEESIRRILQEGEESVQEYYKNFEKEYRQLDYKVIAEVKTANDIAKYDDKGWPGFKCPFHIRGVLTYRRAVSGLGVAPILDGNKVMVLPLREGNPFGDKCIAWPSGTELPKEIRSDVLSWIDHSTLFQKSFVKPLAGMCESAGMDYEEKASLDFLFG
# Source text: as §1, §2
# [4] = molecular target: T3, Rat DNA polymerase β (Rattus norvegicus, UniProt P06766); assay: DNA polymerase assay, rat pol β; type: biochemical; conditions: for Inhibitory mode: Lineweaver Burk plot
# T3 construct: made in house; host or cells: E. coli JMpβ5
# Source text: Pol α was purified from calf thymus by immuno-affinity column chromatography as described by Tamai et al.. Recombinant rat pol β was purified from E. coli JMpβ5 as described by Date et al.. The human pol γ catalytic gene was cloned into pFastBac. Histidine-tagged enzyme was expressed using the BAC-TO-BAC HT Baculovirus Expression System according to the supplier's manual (LIFE TECHNOLOGIES, MD, USA) and purified using ProBoundresin (Invitrogen Japan, Tokyo, Japan). Human pols δ and ε were purified by the nuclear fractionation of human peripheral blood cancer cells (Molt-4) using the second subunit of pols δ and ε-conjugated affinity column chromatography, respectively. Recombinant human pols η and ι tagged with His6 at their C-terminal were expressed in SF9 insect cells using the baculovirus expression system, and were purified as described previously. A truncated form of pol κ (i.e., hDINB1DC) with 6 x His-tags attached at the C-terminal was overproduced using the BAC-to-BAC Baculovirus Expression System kit (GIBCO BRL, MD, USA) and purified as described previously. Recombinant human His-pol λ was overexpressed and purified according to a method described previously. Fish pol δ was purified from the testis of cherry salmon (Oncorhynchus masou). Pol I (α-like) from a higher plant, cauliflower inflorescence, was purified according to the methods outlined by Sakaguchi et al.. The Klenow fragment of pol I from E. coli was purchased from Worthington Biochemical Corp. (Freehold, NJ, USA). Taq pol, T4 pol, T7 RNA polymerase and T4 polynucleotide kinase were purchased from Takara (Kyoto, Japan). Bovine pancreas deoxyribonuclease I (DNase I) was obtained from Stratagene Cloning Systems (La Jolla, CA, USA).
# The reaction mixtures for pol α, pol β, fish pol δ, plant pol I (α-like) and prokaryotic pols were described previously, and those for pol γ, and pols δ and ε were as described by Umeda et al. and Ogawa et al., respectively. The reaction mixtures for pols η, ι and κ were the same as for pol α, and the reaction mixture for pol λ was the same as that for pol β.
# For pols, poly(dA)/oligo(dT)12-18 (A/T = 2/1) and dTTP were used as the DNA template-primer and nucleotide (i.e., dNTP) substrate, respectively. KA-A analogues (i.e., compounds 1–12) were dissolved in distilled dimethyl sulfoxide (DMSO) at various concentrations and sonicated for 30 sec. Aliquots of 4 μL of sonicated samples were mixed with 16 μL of each enzyme (final amount 0.05 units) in 50 mM Tris-HCl (pH 7.5) containing 1 mM dithiothreitol, 50% glycerol and 0.1 mM EDTA, and kept at 0 °C for 10 min. These inhibitor-enzyme mixtures (8 μl) were added to 16 μL of each of the enzyme standard reaction mixtures, and incubation was carried out at 37 °C for 60 min, except for Taq pol, which was incubated at 74 °C for 60 min. Activity without the inhibitor was considered 100%, and the remaining activity at each concentration of the inhibitor was determined relative to this value. One unit of pol activity was defined as the amount of enzyme that catalyzed the incorporation of 1 nmol of dNTP (i.e., dTTP) into synthetic DNA template-primers in 60 min at 37 °C under the normal reaction conditions for each enzyme.
# [5] = system: double-stranded DNA (dsDNA); assay: Thermal transition (Tm) of double-stranded DNA; type: binding; conditions: compound 11 at 200 μM; data not shown
# Protocol: The Tm of dsDNA with an excess amount of compound 11 (200 μM) was measured using a spectrophotometer equipped with a thermoelectric cell holder.
# T1 sequence (P00573 whole entry): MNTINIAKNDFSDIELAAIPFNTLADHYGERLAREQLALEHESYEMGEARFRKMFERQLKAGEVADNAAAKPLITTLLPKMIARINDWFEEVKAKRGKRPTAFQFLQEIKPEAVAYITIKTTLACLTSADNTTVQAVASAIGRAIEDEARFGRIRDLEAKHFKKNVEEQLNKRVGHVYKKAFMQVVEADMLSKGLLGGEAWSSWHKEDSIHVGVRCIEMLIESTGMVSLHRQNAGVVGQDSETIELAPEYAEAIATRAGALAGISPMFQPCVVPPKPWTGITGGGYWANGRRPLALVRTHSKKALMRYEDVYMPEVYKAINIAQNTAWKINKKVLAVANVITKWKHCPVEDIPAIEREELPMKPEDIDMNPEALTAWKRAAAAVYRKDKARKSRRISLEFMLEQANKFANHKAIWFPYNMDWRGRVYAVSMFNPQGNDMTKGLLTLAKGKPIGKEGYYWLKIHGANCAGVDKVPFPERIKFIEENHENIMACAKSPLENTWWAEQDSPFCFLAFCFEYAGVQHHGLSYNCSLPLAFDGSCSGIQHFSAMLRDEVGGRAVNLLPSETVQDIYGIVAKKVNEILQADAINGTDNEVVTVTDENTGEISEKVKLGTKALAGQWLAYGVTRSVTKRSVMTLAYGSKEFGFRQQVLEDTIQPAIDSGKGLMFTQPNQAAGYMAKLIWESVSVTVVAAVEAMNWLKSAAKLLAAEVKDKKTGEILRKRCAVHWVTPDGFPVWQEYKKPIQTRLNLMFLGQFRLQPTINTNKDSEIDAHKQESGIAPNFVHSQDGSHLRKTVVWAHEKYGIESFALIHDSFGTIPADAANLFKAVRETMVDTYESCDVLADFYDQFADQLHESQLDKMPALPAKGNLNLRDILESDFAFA
smiles,measurement,setting,value
"CC1=CC[C@H]2C(C)(C)CCC[C@]2(C)[C@H]1CCCCCCCCCCCCCCCCC(=O)O (relative stereo) [compound 11, (1S*,4aS*,8aS*)-17-(1,4,4a,5,6,7,8,8a-octahydro-2,5,5,8a-tetramethylnaphthalen-1-yl)heptadecanoic acid]",Influence on T7 RNA polymerase activity,[1],not influenced
same,IC50,[2],3.22 to 8.76 µM
same,IC50,[3],> 200 µM
same,Relative activity of pol β,[4]; 10 μM compound 11,15.5 ± 0.78%
same,Relative activity of pol β,[4]; 10 μM compound 11 + 50 μM poly (rC),15.2 ± 0.74%
same,Relative activity of pol β,[4]; 10 μM compound 11 + 200 μg/ml BSA,15.9 ± 1.1%
same,Relative activity of pol β,[4]; 10 μM compound 11 + 0.05 % NP-40,96.1 ± 7.6%
same,Relative activity of pol β,[4]; 10 μM compound 11 + 0.1 % NP-40,100 ± 8.8%
same,Relative activity of pol β,[4]; 100 μM compound 11,3.2 ± 0.16%
same,Relative activity of pol β,[4]; 100 μM compound 11 + 50 μM poly (rC),3.1 ± 0.15%
same,Relative activity of pol β,[4]; 100 μM compound 11 + 200 μg/ml BSA,3.3 ± 0.19%
same,Relative activity of pol β,[4]; 100 μM compound 11 + 0.05 % NP-40,62.5 ± 4.1%
same,Relative activity of pol β,[4]; 100 μM compound 11 + 0.1 % NP-40,95.0 ± 7.6%
same,Inhibitory effect on pol β compared with KA-A,[4]; 10 and 100 μM of compound (Figure 2B),strongest inhibitory effect
same,Ki,"[4]; DNA template-primer poly(dA)/oligo(dT)12-18, Dixon plot",1.96 µM
same,Vmax,"[4]; DNA template-primer poly(dA)/oligo(dT)12-18, unchanged at 0-9 μM compound 11",111 pmol/h
same,fold stronger pol β inhibitor than dideoxyTTP,[4]; comparison with dideoxyTTP,4 fold
same,Ki,"[4]; nucleotide substrate dTTP, Dixon plot",2.36 µM
same,Vmax,"[4]; nucleotide substrate dTTP, unchanged at 0-9 μM compound 11",62.5 pmol/h
same,IC50,"[4]; poly(dA)/oligo(dT)12-18 and dTTP, 0.05 units enzyme",5.5 ± 0.28 µM
same,Inhibitory mode,[4]; with respect to DNA template-primer,Competitive
same,Inhibitory mode,[4]; with respect to dNTP substrate,Competitive
same,Thermal transition of Tm of dsDNA,[5],no thermal transition of Tm was observed
